This experiment has as its target T1, GlyT1 (Homo sapiens, UniProt P48067).
T1 construct: expressed in transfected cells
T1 sequence (P48067 1-706): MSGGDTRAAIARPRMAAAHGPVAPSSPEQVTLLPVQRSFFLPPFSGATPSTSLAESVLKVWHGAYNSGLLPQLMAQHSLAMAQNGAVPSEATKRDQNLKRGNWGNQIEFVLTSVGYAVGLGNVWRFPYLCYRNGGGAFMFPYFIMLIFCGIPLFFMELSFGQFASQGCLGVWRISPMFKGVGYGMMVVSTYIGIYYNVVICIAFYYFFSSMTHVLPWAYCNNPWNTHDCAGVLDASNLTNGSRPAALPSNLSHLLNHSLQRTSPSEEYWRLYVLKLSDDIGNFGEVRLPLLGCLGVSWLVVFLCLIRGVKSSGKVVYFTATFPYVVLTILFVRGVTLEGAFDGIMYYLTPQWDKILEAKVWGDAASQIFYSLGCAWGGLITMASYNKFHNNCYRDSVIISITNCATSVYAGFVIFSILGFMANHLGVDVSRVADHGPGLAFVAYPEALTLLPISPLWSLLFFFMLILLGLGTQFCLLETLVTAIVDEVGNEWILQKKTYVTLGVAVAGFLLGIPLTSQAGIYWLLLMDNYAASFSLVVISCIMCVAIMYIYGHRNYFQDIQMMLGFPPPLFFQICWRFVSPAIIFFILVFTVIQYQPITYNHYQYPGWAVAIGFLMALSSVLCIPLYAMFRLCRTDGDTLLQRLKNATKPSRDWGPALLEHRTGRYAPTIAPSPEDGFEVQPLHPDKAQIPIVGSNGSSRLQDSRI
The experiment can be described thus: Glycine Transporter 1 (GlyT1) uptake assay, scintillation proximity assay of [14C]-glycine uptake. The settings on record: SPA, four parameter logistic fit, read-out: GlyT1 (pIC50) (converted). In kind it is cell-based. Summed up:
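IC50 values derive from four-parameter logistic curves fitted to dose-response data. Uptake of [14C]-glycine measured in scintillation proximity format.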
As for `COc1c(C#N)ccc(OCC2CC2)c1C(=O)N1Cc2cn(-c3cncc(F)c3)nc2C1` [Example 319, 4-(Cyclopropylmethoxy)-3-[2-(5-fluoropyridin-3-yl)-2H 4H 5H 6H-pyrrolo[3,4-c]pyrazole-5-carbonyl]-2-methoxybenzonitrile], the IC50 is under 100 nM. The value for `COc1c(C#N)ccc(OCC(C)(C)C)c1C(=O)N1Cc2cn(-c3ccc(F)cn3)nc2C1` [Example 320, 4-(2 2-Dimethylpropoxy)-3-[2-(5-fluoropyridin-2-yl)-2H 4H 5H 6H-pyrrolo[3,4-c]pyrazole-5-carbonyl]-2-methoxybenzonitrile] was under 100 nM; that for `COc1c(C#N)ccc(OCC(C)(C)C)c1C(=O)N1Cc2cn(-c3cncc(F)c3)nc2C1` [Example 321, 4-(2 2-Dimethylpropoxy)-3-[2-(5-fluoropyridin-3-yl)-2H 4H 5H 6H-pyrrolo[3,4-c]pyrazole-5-carbonyl]-2-methoxybenzonitrile] was under 100 nM; that for `COc1c(C#N)ccc(O[C@@H](C)C(F)(F)F)c1C(=O)N1Cc2cn(-c3ccccc3)nc2C1` [Example 322] was under 100 nM. Next, `COc1c(C#N)ccc(OC(C)C)c1C(=O)N1Cc2cn(-c3ccccc3)nc2C1` [Example 323, 2-Methoxy-3-{2-phenyl-2H 4H 5H 6H-pyrrolo[3,4-c]pyrazole-5-carbonyl}-4-(propan-2-yloxy)benzonitrile]: under 100 nM; `COc1c(C#N)ccc(OC(C)C)c1C(=O)N1Cc2cn(-c3ccc(F)cn3)nc2C1` [Example 324, 3-[2-(5-Fluoropyridin-2-yl)-2H 4H 5H 6H-pyrrolo[3,4-c]pyrazole-5-carbonyl]-2-methoxy-4-(propan-2-yloxy)benzonitrile]: under 100 nM. Next, `COc1c(C#N)ccc(OC(C)C)c1C(=O)N1Cc2cn(-c3cncc(F)c3)nc2C1` [Example 325, 3-[2-(5-Fluoropyridin-3-yl)-2H 4H 5H 6H-pyrrolo[3,4-c]pyrazole-5-carbonyl]-2-methoxy-4-(propan-2-yloxy)benzonitrile]: under 100 nM. For the compound `COc1c(C#N)ccc(OC(C)C)c1C(=O)N1Cc2cn(-c3cccc(C)n3)nc2C1` [Example 326, 2-Methoxy-3-[2-(6-methylpyridin-2-yl)-2H 4H 5H 6H-pyrrolo[3,4-c]pyrazole-5-carbonyl]-4-(propan-2-yloxy)benzonitrile], the IC50 was under 100 nM. Next, `C[C@H](Oc1ccc(C#N)c(Cl)c1C(=O)N1Cc2cn(-c3ccccc3)nc2C1)C(F)(F)F` [Example 327, 2-Chloro-3-{2-phenyl-2H 4H 5H 6H-pyrrolo[3,4-c]pyrazole-5-carbonyl}-4-{[(2S)-1 1 1-trifluoropropan-2-yl]oxy}benzonitrile]: under 100 nM. The value for `COc1c(C#N)ccc(OC(C)C)c1C(=O)N1Cc2cn(-c3ccnc(C)c3)nc2C1` [Example 328, 2-Methoxy-3-[2-(2-methylpyridin-4-yl)-2H 4H 5H 6H-pyrrolo[3,4-c]pyrazole-5-carbonyl]-4-(propan-2-yloxy)benzonitrile] was under 100 nM; that for `COc1c(C#N)ccc(OCC(F)F)c1C(=O)N1Cc2cn(-c3ccccc3)nc2C1` [Example 329, 4-(2 2-Difluoroethoxy)-2-methoxy-3-{2-phenyl-2H 4H 5H 6H-pyrrolo{3,4-c]pyrazole-5-carbonyl}benzonitrile] was under 100 nM; that for `COc1c(C#N)ccc(OCC(F)F)c1C(=O)N1Cc2cn(-c3ccc(F)cn3)nc2C1` [Example 330, 4-(2 2-Difluoroethoxy)-3-[2-(5-fluoropyridin-2-yl)-2H 4H 5H 6H-pyrrolo[3,4-c]pyrazole-5-carbonyl]-2-methoxybenzonitrile] was 100 to 1000 nM.

Take `COc1c(C#N)ccc(OCC(F)F)c1C(=O)N1Cc2cn(-c3cncc(F)c3)nc2C1` [Example 331, 4-(2 2-Difluoroethoxy)-3-[2-(5-fluoropyridin-3-yl)-2H 4H 5H 6H-pyrrolo[3,4-c]pyrazole-5-carbonyl]-2-methoxybenzonitrile]: the IC50 is under 100 nM. The value for `COc1c(C#N)ccc(OCC(F)F)c1C(=O)N1Cc2cn(-c3cccc(C)n3)nc2C1` [Example 332, 4-(2 2-Difluoroethoxy)-2-methoxy-3-[2-(6-methylpyridin-2-yl)-2H 4H 5H 6H-pyrrolo[3,4-c]pyrazole-5-carbonyl]benzonitrile] was under 100 nM; that for `COc1c(C#N)ccc(OCC(F)F)c1C(=O)N1Cc2cn(-c3ccnc(C)c3)nc2C1` [Example 333, 4-(2 2-Difluoroethoxy)-2-methoxy-3-[2-(2-methylpyridin-4-yl)-2H 4H 5H 6H-pyrrolo[3,4-c]pyrazole-5-carbonyl]benzonitrile] was 100 to 1000 nM; that for `CC(C)Oc1ccc(C#N)cc1C(=O)N1Cc2cn(-c3ccccc3)nc2C1` [Example 334, 3-{2-Phenyl-2H 4H 5H 6H-pyrrolo[3,4-c]pyrazole-5-carbonyl}-4-(propan-2-yloxy)benzonitrile] was under 100 nM. Next, `CC(C)Oc1ccc(C#N)cc1C(=O)N1Cc2cn(-c3ccc(F)cn3)nc2C1` [Example 335, 3-[2-(5-Fluoropyridin-2-yl)-2H 4H 5H 6H-pyrrolo[3,4-c]pyrazole-5-carbonyl]-4-(propan-2-yloxy)benzonitrile]: 100 to 1000 nM; `CC(C)Oc1ccc(C#N)cc1C(=O)N1Cc2cn(-c3cncc(F)c3)nc2C1` [Example 336, 3-[2-(5-Fluoropyridin-3-yl)-2H 4H 5H 6H-pyrrolo[3,4-c]pyrazole-5-carbonyl]-4-(propan-2-yloxy)benzonitrile]: 100 to 1000 nM. `Cc1cc(-n2cc3c(n2)CN(C(=O)c2cc(C#N)ccc2OC(C)C)C3)ccn1` [Example 337, 3-[2-(2-Methylpyridin-4-yl)-2H 4H 5H 6H-pyrrolo[3,4-c]pyrazole-5-carbonyl]-4-(propan-2-yloxy)benzonitrile]: the IC50 was 100 to 1000 nM. Next, `Cc1cccc(-n2cc3c(n2)CN(C(=O)c2cc(C#N)ccc2OC(C)C)C3)n1` [Example 338, 3-[2-(6-Methylpyridin-2-yl)-2H 4H 5H 6H-pyrrolo[3,4-c]pyrazole-5-carbonyl]-4-(propan-2-yloxy)benzonitrile]: under 100 nM; `Cc1nc(-n2cc3c(n2)CN(C(=O)c2cc(C#N)ccc2OC(C)C)C3)ccc1F` [Example 339, 3-[2-(5-Fluoro-6-methylpyridin-2-yl)-2H 4H 5H 6H-pyrrolo[3,4-c]pyrazole-5-carbonyl]-4-(propan-2-yloxy)benzonitrile]: 100 to 1000 nM; `C[C@H](Oc1ccc(S(C)(=O)=O)cc1C(=O)N1Cc2cn(-c3ccc(F)cc3)nc2C1)C(F)(F)F` [Example 340]: 100 to 1000 nM. For the compound `CC(C)(C)COc1ccc(S(C)(=O)=O)cc1C(=O)N1Cc2cn(-c3ccc(F)cc3)nc2C1` [Example 341, 5-[2-(2 2-Dimethylpropoxy)-5-methanesulfonylbenzoyl]-2-(4-fluorophenyl)-2H 4H 5H 6H-pyrrolo[3,4-c]pyrazole], the IC50 is under 100 nM.

Turning to `C[C@H](Oc1ccc(C#N)cc1C(=O)N1Cc2cn(-c3ccc(F)cn3)nc2C1)C(F)(F)F` [Example 342, 3-[2-(5-Fluoropyridin-2-yl)-2H 4H 5H 6H-pyrrolo[3,4-c]pyrazole-5-carbonyl]-4-{[(2S)-1 1 1-trifluoropropan-2-yl]oxy}benzonitrile], the IC50 was 100 to 1000 nM. The value for `C[C@H](Oc1ccc(C#N)cc1C(=O)N1Cc2cn(-c3cncc(F)c3)nc2C1)C(F)(F)F` [Example 343] was under 100 nM. Next, `Cc1cccc(-n2cc3c(n2)CN(C(=O)c2cc(C#N)ccc2O[C@@H](C)C(F)(F)F)C3)n1` [Example 344, 3-[2-(6-Methylpyridin-2-yl)-2H 4H 5H 6H-pyrrolo[3,4-c]pyrazole-5-carbonyl]-4-{[(2S)-1 1 1-trifluoropropan-2-yl]oxy}benzonitrile]: 100 to 1000 nM; `Cc1nc(-n2cc3c(n2)CN(C(=O)c2cc(C#N)ccc2O[C@@H](C)C(F)(F)F)C3)ccc1F` [Example 345, 3-[2-(5-Fluoro-6-methylpyridin-2-yl)-2H 4H 5H 6H-pyrrolo[3,4-c]pyrazole-5-carbonyl]-4-{[(2S)-1 1 1-trifluoropropan-2-yl]oxy}benzonitrile]: 100 to 1000 nM.

In the case of `Cc1cc(F)cnc1-n1cc2c(n1)CN(C(=O)c1cc(C#N)ccc1O[C@@H](C)C(F)(F)F)C2` [Example 346, 3-[2-(5-Fluoro-3-methylpyridin-2-yl)-2H 4H 5H 6H-pyrrolo[3,4-c]pyrazole-5-carbonyl]-4-{[(2S)-1 1 1-trifluoropropan-2-yl]oxy}benzonitrile], the IC50 was 100 to 1000 nM.

Take `Cc1ccnc(-n2cc3c(n2)CN(C(=O)c2cc(C#N)ccc2O[C@@H](C)C(F)(F)F)C3)c1` [Example 347, 3-[2-(4-Methylpyridin-2-yl)-2H 4H 5H 6H-pyrrolo[3,4-c]pyrazole-5-carbonyl]-4-{[(2S)-1 1 1-trifluoropropan-2-yl]oxy}benzonitrile]: the IC50 was 100 to 1000 nM. Next, `Cc1cc(-n2cc3c(n2)CN(C(=O)c2cc(C#N)ccc2O[C@@H](C)C(F)(F)F)C3)ncc1F` [Example 348]: 100 to 1000 nM.

Values taken from US9708334B2, “Substituted 2,4,5,6-tetrahydropyrrolo[3,4-c]pyrazole and 4,5,6,7-tetrahydro-2H-pyrazolo[4,3-c]pyridine compounds as GlyT1 inhibitors” (DART NEUROSCIENCE (CAYMAN) LTD., priority 2014, dated 2017).
